From US20090209525A1, “ENABLING METHODS TO IDENTIFY ALLOSTERIC MODULATORS OF RECEPTOR ACTIVITY” (priority 2006, published 2009) come the findings set out here.

Molecules are shown by their SMILES. Numbering of substitutions follows the chain as printed.

For test [1], the target named is T1, rat M1 Y106A receptor (Rattus norvegicus, UniProt P08482, Y106A).
T1 construct: expressed in transfected cells
T1 sequence (P08482 1-460 Y106A): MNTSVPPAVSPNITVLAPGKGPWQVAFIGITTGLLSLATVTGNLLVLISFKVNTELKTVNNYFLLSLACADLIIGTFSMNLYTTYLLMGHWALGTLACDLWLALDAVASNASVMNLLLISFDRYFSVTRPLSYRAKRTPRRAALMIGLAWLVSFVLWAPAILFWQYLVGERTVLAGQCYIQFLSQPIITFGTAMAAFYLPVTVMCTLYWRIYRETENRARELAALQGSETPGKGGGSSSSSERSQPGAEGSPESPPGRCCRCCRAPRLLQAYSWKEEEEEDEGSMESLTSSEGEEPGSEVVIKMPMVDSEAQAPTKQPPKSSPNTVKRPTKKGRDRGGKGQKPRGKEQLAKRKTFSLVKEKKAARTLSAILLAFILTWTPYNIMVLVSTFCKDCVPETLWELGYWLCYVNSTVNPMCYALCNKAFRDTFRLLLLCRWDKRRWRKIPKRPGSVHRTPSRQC
Description: ^3H-NMS radioligand binding, Y106A. The settings on record: for Shift: Ki Y106A divided by Ki wild-type. On the procedure: (§1) Briefly, cell homogenates are prepared from cells transiently or stably expressing wild type or mutant receptors. For transiently transfected cells, HEK cells are transfected with receptor of interest and cells harvested 48 hours post transfection. Cells expressing the receptor, stably or transiently, are harvested using phosphate buffered saline containing 5 mM EDTA, cells centrifuged at low speed and pellet re-suspended in binding buffer. Cell suspension is polytroned and centrifuged at 15,000×g. The pellet is resuspended in binding buffer and centrifugation repeated two more times. The washed cell homogenates are used for the competition binding assays. Competition binding assays are carried out in the presence of fixed amount of cell homogenate, fixed concentration of radioactively labeled orthosteric or allosteric ligand and varying concentrations of the cal under study using appropriate buffer. Incubations are carried out at room temperature for 2 hours. Incubations are terminated by filtration onto GF/B filters using Packard cell harvester followed by 3 washes with ice-cold buffer. Radioactivity retained on the filters is quantitated using Packard Top Count using Microscint 20 scintillation fluid. […] The membranes prepared above are incubated with a labeled ligand in 25 mM sodium phosphate, 5 mM magnesium chloride, 0.01% BSA two hours at room temperature. The binding reaction is stopped by rapid filtration onto GF/B filters. […] The pKd values (pKd=−log Kd) of the labeled ligand are calculated.
(§2) Radioligand binding assays were carried out in 25 mM sodium phosphate, 5 mM magnesium chloride, 0.01% BSA. Incubations were for two hours at room temperature, and reactions were stopped by rapid filtration onto GF/B filters.

The target of test [2] is T2, rat M1 S109A receptor (Rattus norvegicus, UniProt P08482, S109A).
T2 construct: expressed in transfected cells
T2 sequence (P08482 1-460 S109A): T1 sequence (P08482 1-460 Y106A) with A106Y, S109A
Description: ^3H-NMS radioligand binding, S109A. The note with it: for Shift: Ki S109A divided by Ki wild-type. Here is the method:
as §1, §2

For test [3], the target named is T3, rat M1 N110A receptor (Rattus norvegicus, UniProt P08482, N110A).
T3 construct: expressed in transfected cells; host or cells: NIH-3T3
T3 sequence (P08482 1-460 N110A): T1 sequence (P08482 1-460 Y106A) with A106Y, N110A
Briefly: R-SAT functional assay, N110A mutant. The test is classed as cell-based. The note with it: for Eff (%) / Shift / EC50: Table 3; for Eff (%): maximum response, normalized; for Shift: EC50 N110A divided by EC50 wild-type. Here is the method: Cells are co-transfected for 18 h with DMEM containing 0.08 micrograms/ml of an expression vector for the expression of the mutant receptor and 0.3 micrograms/ml pSI-Bgal (Promega, Madison Wis.), and 0.5% v/v Polyfect (Qiagen, Valencia Calif.), as recommended by the manufacturer. On day three, the medium is replaced with DMEM containing 1% PSG, 0.5% calf serum, 2% cyto-sf3 (Kemp Biotechnologies, Frederick, Md.), and varying concentrations of the compounds to be tested. Cells are grown in a humidified atmosphere with 5% ambient CO2 for 5 days. The media is removed from the plates, and beta-galactosidase activity is measured by the addition of o-nitrophenyl -d-galactopyranoside in phosphate-buffered saline with 5% Nonidet P-40. […] The following equation is fitted to the data using GraphPad Prism software (San Diego, Calif.):
NIH-3T3 cells were grown in 96-well tissue culture plates to 70 to 80% confluence in Dulbecco's modified essential media (DMEM) supplemented with 100 units/ml penicillin, 100 micrograms/ml streptomycin, 0.3 mg/ml L-glutamine (1% PSG, GIBCO) and 10% calf serum (Sigma-Aldrich). Cells were transfected for 18 h with DMEM containing 0.08 micrograms/ml receptor DNA and 0.3 micrograms/ml pSI-Bgal (Promega, Madison Wis.), 0.5% v/v Polyfect (Qiagen, Valencia Calif.). Medium was replaced with DMEM containing 1% PSG, 0.5% calf serum, 2% cyto-sf3 (Kemp Biotechnologies, Frederick, Md.), and varying concentrations of ligand. […] Cells were grown in a humidified atmosphere with 5% ambient CO2 for 5 days. Medium was removed from the plates, and beta-galactosidase activity was measured by the addition of o-nitrophenyl -d-galactopyranoside in phosphate-buffered saline with 5% Nonidet P-40.

The target of test [4] is T1, rat M1 Y106A receptor. Briefly: Phosphatidyl inositol hydrolysis assay, Y106A. It counts as cell-based. The settings on record: Table 6; for Shift: EC50 Y106A divided by EC50 wild-type; for EC50 / Eff (%): PI hydrolysis, Y106A; for Eff (%): relative to wild-type response to that ligand (clozapine: title says fold-response).

Regarding `CCCCC1CCN(CCCC(=O)c2ccccc2C)CC1` [AC-42, 4-n-butyl-1-[4-(2-methylphenyl)-4-oxo-1-butyl] piperidine hydrogen chloride], in test [1], the IC50 was 5010 nM and the Shift is given as 1. In addition, in test [2], the IC50 was 2510 nM and the Shift was found to be 0.5. The “Eff (%)” value in test [3] (N110A) turned out to be 7 ± 1%.
Turning to `CCCCC1CCN(CCCN2C(=O)COc3cc(F)ccc32)CC1` [AC-260584, 4-[3-(4-Butyl-piperidin-1-yl)-propyl]-7-fluoro-4H-benzo [1,4]oxazin-3-one], the IC50 in test [1] is 3160 nM; in test [2] it was 1580 nM. Moreover, the Shift is 3 in test [1], 4 in test [4], 1 in test [2] and 43 in test [3]. The half-maximal effective concentration (EC50) in test [4] was 251 nM; in test [3] (N110A) it was 631 nM. The “Eff (%)” value in test [4] worked out at 110 ± 22%; in test [3] (N110A), 38 ± 6%. In test [3] (R-SAT, N110A), the “decrease in potency relative to wild-type” value worked out at 30 fold.
In the case of `Clc1ccc2c(c1)N=C(N1CCNCC1)c1ccccc1N2` [NDMC, 8-chloro-11-(1-piperazinyl)-5H-dibenzo [b,e] [1,4] diazepine], the concentration for half-maximal inhibition (IC50) was 50.1 nM in test [1] and 631 nM in test [2]. The Shift in test [1] stood at 0.3; in test [4] it was 3; in test [2], 4; in test [3], 21. Further, the figures for the 50% effective concentration (EC50) in test [4] and in test [3] (N110A) were 200 nM and 794 nM, respectively. In addition, the “Eff (%)” value in test [4] was determined as 40 ± 4%; in test [3] (N110A), 66 ± 16%.

As usually defined, the IC50 is the midpoint of a concentration-inhibition curve. Usually EC50 stands for the concentration at which the effect is half-maximal. Read a low EC50 as an effect from little substance.
